These results are taken from patent US9718803B2 (AMGEN INC., priority 2010, dated 2017).

pIC50: −log10 of the molar value. Where two headings read alike, the source gives them in different places.

The target of this experiment is PDE10 enzyme. The experiment can be described thus: MPDE10A7 enzyme activity and inhibition (IMAP TR-FRET assay). The class given is biochemical.

Method: MPDE10A7 Enzyme Activity and Inhibition
Enzyme Activity. An IMAP TR-FRET assay was used to analyze the enzyme activity (Molecular Devices Corp., Sunnyvale Calif.). 5 L of serial diluted PDE10A (BPS Bioscience, San Diego, Calif.) or tissue homogenate was incubated with equal volumes of diluted fluorescein labeled cAMP or cGMP for 60 min in 384-well polystyrene assay plates (Corning, Corning, N.Y.) at room temperature. After incubation, the reaction was stopped by adding 60 L of diluted binding reagents and was incubated for 3 hours to overnight at room temperature. The plates were read on an Envision (Perkin Elmer, Waltham, Mass.) for time resolved fluorescence resonance energy transfer. The data were analyzed with GraphPad Prism (La Jolla, Calif.).
Enzyme Inhibition. To check the inhibition profile, 5 μL of serial diluted compounds were incubated with 5 μL of diluted PDE10 enzyme (BPS Bioscience, San Diego, Calif.) or tissue homogenate in a 384-well polystyrene assay plate (Corning, Corning, N.Y.) for 30 min at room temperature. […] The reaction was stopped by adding 60 μL of diluted binding reagents and plates were read on an Envision (Perkin Elmer, Waltham, Mass.) for time resolved fluorescence resonance energy transfer. The data were analyzed with GraphPad Prism (La Jolla, Calif.).

Broadly, the pIC50 is −log10 of the IC50, conventionally taken in molar units. As for `N#Cc1ccc(-c2nccnc2C2CN(c3ccc4ccccc4n3)C2)cc1` [Example 5.8, 4-(3-(1-(quinolin-2-yl)azetidin-3-yl)pyrazin-2-yl)benzonitrile], the negative-log IC50 (pIC50) (read-out: IC50) was 8.52.

For the molecule `O=C(O)c1cccc(-c2nccnc2C2CN(c3ccc4ccccc4n3)C2)c1` [Example 33.1, Lithium 3-(3-(1-(Quinolin-2-Yl)Azetidin-3-Yl)Pyrazin-2-Yl)Benzoate], the negative-log IC50 (pIC50) (running text of examples, fluorescein labeled cAMP or cGMP substrate, read-out: PDE10 IC50) was 8.80.
